In PMC12447755, “β-Lactamase cleavable antimicrobial peptide–drug conjugates” (Chemical Science, 2025):
Like-named read-outs stand apart in the source and are kept apart here. Where a SMILES comes first, the peptide text is derived from it.

Tests used:
[1] = test system: P. aeruginosa strain PAO1
[2] = test system: P. aeruginosa strain PA14
[3] = test system: Pseudomonas aeruginosa strain PAO1; assay: Initial susceptibility testing at a fixed concentration; format: cell-based; parameters: key: Tick (✓) represents OD600 comparable to no-growth control; cross (✗) represents OD600 comparable to growth control without any peptide; settings: 256 μg mL−1 of peptide, overnight incubation, OD600 compared with growth and no-growth controls
[4] = Table 2, broth microdilution in MH medium, 37 °C, 16 h, MTT and OD600, triplicate
[5] = Table S5, altered linking region between peptide and cephalosporin

SMILES	PAO1 MIC ([1]; PAO1, 18 h)	PA14 MIC ([2]; PA14, 18 h)	further results
CC(=O)OCC1=C(C(=O)O)N2C(=O)[C@@H](NC(=O)CCCNc3nc4cc(n3)CCSC[C@H](NC(=O)[C@H](CCCCN)NC(=O)[C@H](C)NC(=O)[C@@H](N)Cc3ccccc3)C(=O)N[C@@H](C)C(=O)N[C@@H](Cc3ccccc3)C(=O)N[C@@H](CCCCN)C(=O)N[C@@H](Cc3c[nH]c5ccccc35)C(=O)N[C@@H](CC(C)C)C(=O)N[C@@H](CCCCN)C(=O)N[C@H](C(N)=O)CSCC4)[C@H]2SC1 [P10-8]	> 35 µM	> 35 µM	
CC[C@H](C)CCCCC(=O)N[C@@H](CCN)C(=O)N[C@H](C(=O)N[C@@H](CCN)C(=O)N[C@H]1CCNC(=O)[C@H]([C@@H](C)O)NC(=O)[C@H](CCN)NC(=O)[C@H](CCN)NC(=O)[C@H](CC(C)C)NC(=O)[C@@H](Cc2ccccc2)NC(=O)[C@H](CCN)NC1=O)[C@@H](C)O [Polymyxin B, reference compound] (HELM PEPTIDE1{[CC[C@H](C)CCCCC(=O)[*:2]].[Dab].T.[Dab].[Dab].[Dab].[dF].L.[Dab].[Dab].T}$PEPTIDE1,PEPTIDE1,5:R3-11:R2$$$V2.0; N-terminus assumed; bridges inferred)	0.83 µM		MIC for PAO1 ([1]; PAO1, 18 h): 1.7 µM; PAO1 MIC ([1]; Table S3, initial MIC values): 2 µg/mL; PAO1 MIC ([1]; Table S4, cephalosporin-based staple 8 at different positions): 1 µg/mL; MIC for PA14 ([2]; PA14, 18 h): 0.83 µM; PA14 MIC ([2]; Table S3, initial MIC values): 1 µg/mL; PA14 MIC ([2]; Table S4): 0.83 µM
CCCCCCCC(=O)NCC(=O)N[C@H]1CSCCc2cc(nc(NCCCc3ccccc3)n2)CCSC[C@@H](C(=O)N[C@@H](CC(C)C)C(N)=O)NC(=O)[C@H](CCCCN)NC(=O)[C@H](CCCCN)NC(=O)[C@H]([C@@H](C)CC)NC(=O)[C@H](Cc2ccccc2)NC(=O)[C@H](CCCCN)NC(=O)[C@H](CC(C)C)NC1=O [P5-1] (HELM PEPTIDE1{[CCCCCCCC(=O)[*:2]].G.C.L.K.F.I.K.K.C.L.[am]}|CHEM1{[c1ccc(CCCNc2nc(CC[*:1])cc(CC[*:2])n2)cc1]}$PEPTIDE1,CHEM1,3:R3-1:R1|PEPTIDE1,CHEM1,10:R3-1:R2$$$V2.0)			Inh (inhibition) [3]: ✗
CC(=O)N[C@H](C(=O)N[C@@H](CC(C)C)C(=O)N[C@@H](CCCCN)C(=O)N[C@@H](CCC(N)=O)C(=O)N[C@@H](Cc1ccccc1)C(=O)N[C@H]1CSCCc2cc(nc(NCCCc3ccccc3)n2)CCSC[C@@H](C(=O)N[C@H](C(=O)N[C@@H](CCCCN)C(N)=O)C(C)C)NC(=O)[C@H](Cc2c[nH]c3ccccc23)NC(=O)[C@H](CCCCN)NC(=O)CNC(=O)[C@H](C(C)C)NC(=O)CNC(=O)[C@H](CCCCN)NC1=O)[C@@H](C)O [P1-1] (HELM PEPTIDE1{[ac].T.L.K.Q.F.C.K.G.V.G.K.W.C.V.K.[am]}|CHEM1{[c1ccc(CCCNc2nc(CC[*:1])cc(CC[*:2])n2)cc1]}$PEPTIDE1,CHEM1,7:R3-1:R1|PEPTIDE1,CHEM1,14:R3-1:R2$$$V2.0)			Inh (inhibition) [3]: ✗
CC(=O)OCC1=C(C(=O)O)N2C(=O)[C@@H](NC(=O)CCCNc3nc4cc(n3)CCSC[C@H](N)C(=O)N[C@@H](C)C(=O)N[C@@H](CCCCN)C(=O)N[C@@H](Cc3c[nH]c5ccccc35)C(=O)N[C@@H](C)C(=O)N[C@@H](Cc3ccccc3)C(=O)N[C@@H](CCCCN)C(=O)N[C@H](C(=O)N[C@@H](CC(C)C)C(=O)N[C@@H](CCCCN)C(=O)N[C@@H](CCCCN)C(N)=O)CSCC4)[C@H]2SC1 [P8-8]	> 35 µM	> 35 µM	
C[C@@H]1NC(=O)[C@H](Cc2c[nH]c3ccccc23)NC(=O)[C@H](CCCCN)NC(=O)[C@@H](NC(=O)[C@@H](N)Cc2ccccc2)CSCCc2cc(nc(NCCCC(=O)N3CCN(c4cc5c(cc4F)c(=O)c(C(=O)O)cn5C4CC4)CC3)n2)CCSC[C@@H](C(=O)N[C@@H](CCCCN)C(=O)N[C@@H](CCCCN)C(N)=O)NC(=O)[C@H](Cc2c[nH]c3ccccc23)NC(=O)[C@H](CCCCN)NC(=O)[C@H](Cc2ccccc2)NC1=O [P2-12] (HELM PEPTIDE1{F.C.K.W.A.F.K.W.C.K.K.[am]}|CHEM1{[O=C(O)c1cn(C2CC2)c2cc(N3CCN(C(=O)CCCNc4nc(CC[*:1])cc(CC[*:2])n4)CC3)c(F)cc2c1=O]}$PEPTIDE1,CHEM1,2:R3-1:R1|PEPTIDE1,CHEM1,9:R3-1:R2$$$V2.0)			MIC for PAO1 [1, 4]: > 64 µg/mL; MIC for PA14 [2, 4]: > 64 µg/mL
C[C@@H]1NC(=O)[C@H](Cc2c[nH]c3ccccc23)NC(=O)[C@H](CCCCN)NC(=O)[C@@H](NC(=O)[C@@H](N)Cc2ccccc2)CSCCc2cc(nc(NCCCC(=O)N[C@@H](C(=O)N[C@@H]3C(=O)N4C(C(=O)O)=C(COC(=O)N5CCN(c6cc7c(cc6F)c(=O)c(C(=O)O)cn7C6CC6)CC5)CS[C@H]34)c3ccccc3)n2)CCSC[C@@H](C(=O)N[C@@H](CCCCN)C(=O)N[C@@H](CCCCN)C(N)=O)NC(=O)[C@H](Cc2c[nH]c3ccccc23)NC(=O)[C@H](CCCCN)NC(=O)[C@H](Cc2ccccc2)NC1=O [P2-21]	27 µM	13 µM	PAO1 MIC [1, 5]: 64 µg/mL; PA14 MIC ([2]; Table S5): 32 µg/mL
C[C@@H]1NC(=O)[C@H](Cc2c[nH]c3ccccc23)NC(=O)[C@H](CCCCN)NC(=O)[C@@H](NC(=O)[C@@H](N)Cc2ccccc2)CSCCc2cc(nc(NCCCC(=O)NCCCCCC(=O)N[C@@H]3C(=O)N4C(C(=O)O)=C(COC(=O)N5CCN(c6cc7c(cc6F)c(=O)c(C(=O)O)cn7C6CC6)CC5)CS[C@H]34)n2)CCSC[C@@H](C(=O)N[C@@H](CCCCN)C(=O)N[C@@H](CCCCN)C(N)=O)NC(=O)[C@H](Cc2c[nH]c3ccccc23)NC(=O)[C@H](CCCCN)NC(=O)[C@H](Cc2ccccc2)NC1=O [P2-20]	13 µM	13 µM	PAO1 MIC [1, 5]: 32 µg/mL; PA14 MIC ([2]; Table S5): 32 µg/mL
CC(=O)OCC1=C(C(=O)O)N2C(=O)[C@@H](NC(=O)CCCNc3nc4cc(n3)CCSC[C@H](NC(=O)[C@H](CCCCN)NC(=O)[C@H](C)NC(=O)[C@H](Cc3ccccc3)NC(=O)[C@@H](N)CCCCN)C(=O)N[C@@H](C)C(=O)N[C@@H](Cc3ccccc3)C(=O)N[C@@H](CCCCN)C(=O)N[C@@H](Cc3c[nH]c5ccccc35)C(=O)N[C@@H](CC(C)C)C(=O)N[C@@H](CCCCN)C(=O)N[C@H](C(N)=O)CSCC4)[C@H]2SC1 [P12-8]	> 33 µM	> 33 µM	
CC(=O)OCC1=C(C(=O)O)N2C(=O)[C@@H](NC(=O)CCCNc3nc4cc(n3)CCSC[C@H](N)C(=O)N[C@@H](Cc3ccccc3)C(=O)N[C@@H](C)C(=O)N[C@@H](CCCCN)C(=O)N[C@@H](Cc3c[nH]c5ccccc35)C(=O)N[C@@H](C)C(=O)N[C@@H](Cc3ccccc3)C(=O)N[C@H](C(=O)N[C@@H](Cc3c[nH]c5ccccc35)C(=O)N[C@@H](CC(C)C)C(=O)N[C@@H](CCCCN)C(=O)N[C@@H](CCCCN)C(N)=O)CSCC4)[C@H]2SC1 [P11-8]	> 32 µM	> 32 µM	
CC(=O)OCC1=C(C(=O)O)N2C(=O)[C@@H](NC(=O)CCCNc3nc4cc(n3)CCSC[C@H](NC(=O)[C@H](Cc3c[nH]c5ccccc35)NC(=O)[C@H](CCCCN)NC(=O)[C@H](C)NC(=O)[C@@H](N)Cc3ccccc3)C(=O)N[C@@H](Cc3ccccc3)C(=O)N[C@@H](CCCCN)C(=O)N[C@@H](Cc3c[nH]c5ccccc35)C(=O)N[C@@H](CC(C)C)C(=O)N[C@@H](CCCCN)C(=O)N[C@@H](CCCCN)C(=O)N[C@H](C(N)=O)CSCC4)[C@H]2SC1 [P9-8]	> 31 µM	31 µM	
